Like-named read-outs stand apart in the source and are kept apart here.

Series [1] has as its system Akt, ERK, JNK and p38 phosphorylation in PC-3 cells. The series can be described thus: Western blot of kinase phosphorylation in PC-3 cells. The class given is cell-based. Here is the method:
Cells cultured in T25 flasks were collected by scraping, and cell pellets were washed once with PBS. Cells were lysed in a lysis buffer consisting of 1% SDS, 10 mM EDTA and 50 mM Tris-HCl, pH 8.1, in the presence of a commercial protease inhibitor cocktail from Aldrich-Sigma (2 mM AEBSF, 1 mM EDTA, 130 μM bestatin, 14 μM E-64, 1 μM leupeptin, and 0.3 μM aprotinin). Following a 10-sec sonication using 20% output in a Virsonic 300 sonicator (Virtis, Gardiner N.Y.) to disrupt cellular organelles and genomic DNA, cell lysates were centrifuged at 15,200×g for 15 minutes. One μL of the suspension was used for protein determination using a colorimetric BCA assay (Pierce, Rockford, Ill.), and to the remaining solution was added an equivalent volume of 2×SDS-polyacrylamide gel electrophoresis sample loading buffer (62.5 mM Tris-HCl, pH 6.8, 4% SDS, 5% β-mercaptoethanol, 20% glycerol, and 0.1% bromophenol blue), and boiled for 5 min. Equal amounts of proteins were resolved in 8% SDS-polyacrylamide gels, and transferred to nitrocellulose membranes using a semidry transfer cell. The transblotted membrane was washed twice with Tris-buffered saline containing 0.1% Tween 20 (TBST). After blocking with TBST containing 5% nonfat milk for 40 min, the membrane was incubated with the appropriate primary antibody in TBST-1% nonfat milk at 4° C. overnight. […]
On the technique in general: A western blot detects proteins with antibodies after separation by electrophoresis.

The test system of series [2] is normal prostate epithelial cells (PrECs). The series can be described thus: MTT viability assay, normal prostate epithelial cells.
Method: (§1) LNCaP androgen-dependent (p53^+/+) and PC-3 androgen-nonresponsive (p53^−/−) prostate cancer cells were purchased from the American Type Culture Collection (Manassas, Va.), and cultured in RPMI 1640 medium containing 10% heat-inactivated FBS. […] All cell types were cultured at 37° C. in a humidified incubator containing 5% CO2. Cells in log phase growth were harvested by trypsinization for use in the MTT viability assay. LNCaP cells were plated in poly-D-lysine coated culture flasks in order to assist cell adherence to the surface. Prior to drug treatment, cells were plated in a density of 12,000 cells/cm^2 surface area in the respective culture medium for 24-48 h, followed by individual test agents in 2.5% FBS-supplemented RPMI medium.
Series [3] has the same test system.
Method: as §1

On to `Cc1c(C)c2c(c(C)c1OC(=O)CCC(=O)O)CCC(C)(CCCC(C)CCCC(C)C)O2` (stereo not shown) [TS-1, succinic acid mono-[2-(4,8-dimethyl-nonyl)-2,5,7,8-tetramethylchroman-6-yl]ester], for which, in series [1], the “phosphorylation levels of Akt, ERK, JNK, p38” value is given as “also noted in PC-3 cells”. For the same molecule, the “antiproliferative effect on PrECs relative to malignant cells” value in series [2] is reported as “resistant”.

With `Cc1c(C)c2c(c(C)c1OC(=O)CCC(=O)O)CC[C@@](C)(CCC[C@H](C)CCC[C@H](C)CCCC(C)C)O2` [VES, α-tocopheryl succinate], the “phosphorylation levels of Akt, ERK, JNK, p38” value in series [1] was “also noted in PC-3 cells”. The “antiproliferative effect on PrECs relative to malignant cells” value in series [3] was “resistant”.

The values are drawn from patent publication US8461362B2, “Protein phosphatase 2A-activating agents” (The Ohio State University Research Foundation, priority 2009, dated 2013).
